Test results from PubChem BioAssay (NCI).
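Values below derive from 48-hour exposures of cells grown in 96-well plates, with endpoints linearly interpolated between the two concentrations bracketing the appropriate inhibition level. Abbreviation: GI50, concentration required for 50% inhibition of growth. At the TGI there is no net growth.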

How the values were obtained:
Test in all cases: inhibition of tumour cell growth, NCI panel, 48 h
NCI/ADR-RES ovarian = system: NCI/ADR-RES ovarian
EKVX NSCLC = system: EKVX NSCLC
DMS 114 small cell lung = system: DMS 114 small cell lung
HL-60(TB) leukemia = system: HL-60(TB) leukemia
DLD-1 colon = system: DLD-1 colon
CAKI-1 renal = system: CAKI-1 renal
MOLT-4 leukemia = system: MOLT-4 leukemia
RXF 393 renal = system: RXF 393 renal
SK-OV-3 ovarian = system: SK-OV-3 ovarian
RPMI-8226 leukemia = system: RPMI-8226 leukemia

| SMILES | TGI (NCI/ADR-RES ovarian) | TGI (EKVX NSCLC) | TGI (DMS 114 small cell lung) | TGI (HL-60(TB) leukemia) | TGI (DLD-1 colon) | TGI (CAKI-1 renal) | TGI (MOLT-4 leukemia) | TGI (RXF 393 renal) | TGI (SK-OV-3 ovarian) | TGI (RPMI-8226 leukemia) | GI50 (EKVX NSCLC) | GI50 (DMS 114 small cell lung) | GI50 (HL-60(TB) leukemia) | GI50 (DLD-1 colon) | GI50 (CAKI-1 renal) | GI50 (MOLT-4 leukemia) | GI50 (RXF 393 renal) | GI50 (SK-OV-3 ovarian) | GI50 (RPMI-8226 leukemia) |
| --- | --- | --- | --- | --- | --- | --- | --- | --- | --- | --- | --- | --- | --- | --- | --- | --- | --- | --- | --- |
| CS(=O)c1cc(=O)c2ccccc2s1 (stereo not drawn) | 34.1 µM | 20.5 µM | 9.87 µM | 4.63 µM | 5.6 µM | 6.2 µM | 6.36 µM | 5.46 µM | 39.4 µM | 9.08 µM | – | – | – | – | – | – | – | – | – |
| CCC[CH2][Sn]1([CH2]CCC)[O]C(=O)c2cccnc2[S]1 | – | 11.9 µM | 3.83 µM | 3.31 µM | 14.5 µM | 8.05 µM | 7.71 µM | 3.2 µM | 31.4 µM | 5.29 µM | 2.46 µM | 1.64 µM | 1.42 µM | 3.94 µM | 1.76 µM | 1.87 µM | 1.66 µM | 16.9 µM | 1.48 µM |
| COc1ccc(Cc2c3cc(OC)c(OC)cc3cc[n+]2C)cc1 | – | > 59 µM | > 28.8 µM | > 100 µM | > 26.9 µM | > 61.7 µM | > 100 µM | > 42 µM | > 47.3 µM | > 100 µM | – | – | – | – | – | – | – | – | – |
| C[C@H](O)CCC(=O)c1ccoc1 | – | > 100 µM | > 100 µM | > 100 µM | > 100 µM | > 100 µM | > 100 µM | > 100 µM | > 100 µM | > 100 µM | – | – | – | – | – | – | – | – | – |
| CC(=O)NNc1nc(C)c(C(=O)NNC(=O)C(=O)Nc2ccc(C)cc2[N+](=O)[O-])s1 | – | > 100 µM | > 100 µM | > 100 µM | > 100 µM | > 100 µM | > 100 µM | > 100 µM | > 100 µM | > 100 µM | – | – | – | – | – | – | – | – | – |
| COc1cc(/C=C(\C#N)C(=O)c2ccccc2)cc(OC)c1OC | – | > 100 µM | > 100 µM | > 100 µM | > 100 µM | > 100 µM | > 100 µM | 96.8 µM | > 100 µM | > 100 µM | – | – | – | – | – | – | – | – | – |
| CCc1cccc(CC)c1NC1=CC(=O)C(=O)c2ccccc21 | – | 27.9 µM | 27.6 µM | > 100 µM | 49.7 µM | 44.3 µM | > 100 µM | 45.2 µM | 89.5 µM | > 100 µM | – | – | – | – | – | – | – | – | – |
